The text below walks through data of US20240132431A1, “METHOD FOR ALKYLATING ACIDIC FUNCTIONAL GROUP” (Chugai Seiyaku Kabushiki Kaisha, priority 2021, published 2024).

This experiment has as its target T1, Bcl-2 protein (Recombinant Human Bcl-2 Protein) (Homo sapiens, UniProt P10415).
T1 construct: purchased Novus NBP2-34889
As to the kind of experiment: Binding evaluation of mixture library compounds to Bcl-2 using AS-MS (affinity selection mass spectrometry). The conditions noted are these: for ASMS ratio (%) n = 1 / ASMS ratio (%) n = 2: ASMS Ratio(%)=(A−C)/B×100; for ASMS ratio (%) n = 1: replicate n = 1; for ASMS ratio (%) n = 2: replicate n = 2. Put shortly: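 ASMS Ratio (%) was calculated as (A−C)/B×100, where A is the protein sample after SEC, B the protein-free sample without SEC and C the protein-free sample after SEC. Each compound was at […] in a 1200-member pool with 20 μM Bcl-2, incubated 1 h at 23° C.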

[1] abbreviates: AS-MS, mixture of 1200 compounds, Bcl-2.
[2] abbreviates: AS-MS on the mixture of 1200 library compounds.

T1 sequence (P10415 whole entry): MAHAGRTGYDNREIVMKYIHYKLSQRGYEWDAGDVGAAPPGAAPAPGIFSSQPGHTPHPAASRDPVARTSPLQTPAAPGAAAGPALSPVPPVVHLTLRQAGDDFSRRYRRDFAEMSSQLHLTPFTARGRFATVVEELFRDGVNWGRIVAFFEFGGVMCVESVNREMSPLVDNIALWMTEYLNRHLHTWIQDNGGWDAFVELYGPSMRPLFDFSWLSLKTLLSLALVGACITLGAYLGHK

Turning to “4-[4-[4-(5-Ethoxypyridin-3-yl)naphthalene-1-carbonyl]piperazin-1-yl]-N-propylbenzamide [B1M074-01]”, under setting [1], the “ASMS ratio (%) n = 1” value is listed as −1.6% and the “ASMS ratio (%) n = 2” value stood at 0.9%. Regarding `CCOc1cccc(-c2csc(CN3CCN(c4ccc(C(=O)N(C)CC56CC7CC(CC(C7)C5)C6)cc4)CC3)c2)c1` [B3A067-01, N-(1-Adamantylmethyl)-4-[4-[[4-(3-ethoxyphenyl)thiophen-2-yl]methyl]piperazin-1-yl]-N-methylbenzamide], under setting [2], the “ASMS ratio (%) n = 1” value was −7.3% and the “ASMS ratio (%) n = 2” value came to 4.0%. As to `CCOc1cncc(-c2cc(C(=O)N3CCN(c4ccc(C(=O)NCC56CC7CC(CC(C7)C5)C6)cc4)CC3)cc(C(F)(F)F)c2)c1` [B1A040-01, N-(1-Adamantylmethyl)-4-[4-[3-(5-ethoxypyridin-3-yl)-5-(trifluoromethyl)benzoyl]piperazin-1-yl]benzamide], under setting [1], the “ASMS ratio (%) n = 1” value was 10.4% and the “ASMS ratio (%) n = 2” value is reported as 8.4%.

With `CCOc1cncc(-c2cc(CN3CCN(c4ccc(C(=O)N(CC)CC)nn4)CC3)cc(OCC)c2)c1` [B4J082-01, 6-[4-[[3-Ethoxy-5-(5-ethoxypyridin-3-yl)phenyl]methyl]piperazin-1-yl]-N,N-diethylpyridazine-3-carboxamide], for the setting “AS-MS, mixture library, Bcl-2”, the “ASMS ratio (%) n = 1” value is listed as 0.0% and the “ASMS ratio (%) n = 2” value is reported as 0.0%. In the case of `CCOc1cccc(C#Cc2cncc(C(=O)N3CCN(c4ccc(C(=O)NS(=O)(=O)CC56CC7CC(CC(C7)C5)C6)cc4)CC3)c2)c1` [B2A031-01, N-(1-Adamantylmethylsulfonyl)-4-[4-[5-[2-(3-ethoxyphenyl)ethynyl]pyridine-3-carbonyl]piperazin-1-yl]benzamide], under “AS-MS, mixture library, Bcl-2”, the “ASMS ratio (%) n = 1” value was found to be 0.0% and the “ASMS ratio (%) n = 2” value amounted to 0.3%.

Take `CCOc1cncc(-c2cc(CN3CCN(c4ccc(C(=O)NS(=O)(=O)c5ccc(NCCSc6ccccc6)c(C(F)(F)F)c5)cc4)CC3)cc(OCC)c2)c1` [B2R056-01, 4-[4-[[3-Ethoxy-5-(5-ethoxypyridin-3-yl)phenyl]methyl]piperazin-1-yl]-N-[4-(2-phenylsulfanylethylamino)-3-(trifluoromethyl)phenyl]sulfonylbenzamide]: the “ASMS ratio (%)” value (n = 2) is recorded as −63.9%. For the compound `CCOc1cccc(-c2cc(CN3CCN(c4ccc(C(=O)NS(=O)(=O)c5ccc(NCCSc6ccccc6)c(C(F)(F)F)c5)nn4)CC3)cc(OC(C)C)c2)c1` [B2R083-01, 6-[4-[[3-(3-Ethoxyphenyl)-5-propan-2-yloxyphenyl]methyl]piperazin-1-yl]-N-[4-(2-phenylsulfanylethylamino)-3-(trifluoromethyl)phenyl]sulfonylpyridazine-3-carboxamide], the “ASMS ratio (%)” value (n = 1) is recorded as 31.9% and the “ASMS ratio (%)” value (n = 2) is listed as −11.1%.

On to `CCOc1cccc(-c2cc(CN3CCN(c4ccc(C(=O)N(CC)CC)nn4)CC3)cc(OCC)c2)c1` [B4J081-01, 6-[4-[[3-Ethoxy-5-(3-ethoxyphenyl)phenyl]methyl]piperazin-1-yl]-N,N-diethylpyridazine-3-carboxamide], for which, for the setting “AS-MS, mixture library, Bcl-2”, the “ASMS ratio (%) n = 1” value amounted to 0.0% and the “ASMS ratio (%) n = 2” value is listed as 0.0%.

In the case of `CCOc1cncc(-c2ccccc2CN2CCN(c3ccc(C(=O)NS(C)(=O)=O)nn3)CC2)c1` [B2I072-01, 6-[4-[[2-(5-Ethoxypyridin-3-yl)phenyl]methyl]piperazin-1-yl]-N-methylsulfonylpyridazine-3-carboxamide], the “ASMS ratio (%)” value (n = 1) is 0.8% and the “ASMS ratio (%)” value (n = 2) is reported as 1.3%. Consider `CCOc1cccc(-c2ccccc2CCC(=O)N2CCN(c3ccc(C(=O)NS(C)(=O)=O)nn3)CC2)c1` [B2I011-01, 6-[4-[3-[2-(3-Ethoxyphenyl)phenyl]propanoyl]piperazin-1-yl]-N-methylsulfonylpyridazine-3-carboxamide], for which, where the note is “AS-MS, mixture library, Bcl-2”, the “ASMS ratio (%) n = 1” value is 0.0% and the “ASMS ratio (%) n = 2” value came out at 0.0%. As to “6-[4-[2-[2-(3-Ethoxyphenyl)ethynyl]benzoyl]piperazin-1-yl]-N-propylpyridazine-3-carboxamide [B1M095-01]”, under setting [2], the “ASMS ratio (%) n = 1” value came out at 0.0% and the “ASMS ratio (%) n = 2” value was found to be 0.0%. Regarding `CCOc1cccc(C#Cc2ccccc2C(=O)N2CCN(c3ccc(C(=O)N(C)CC45CC6CC(CC(C6)C4)C5)nn3)CC2)c1` [B3A007-01, N-(1-Adamantylmethyl)-6-[4-[2-[2-(3-ethoxyphenyl)ethynyl]benzoyl]piperazin-1-yl]-N-methylpyridazine-3-carboxamide], under setting [2], the “ASMS ratio (%) n = 1” value amounted to 9.1% and the “ASMS ratio (%) n = 2” value is −5.1%. On to `CCOc1cccc(-c2cc(CN3CCN(c4ccc(C(=O)NS(C)(=O)=O)nn4)CC3)cc(C(F)(F)F)c2)c1` [B2I087-01, 6-[4-[[3-(3-Ethoxyphenyl)-5-(trifluoromethyl)phenyl]methyl]piperazin-1-yl]-N-methylsulfonylpyridazine-3-carboxamide], for which the “ASMS ratio (%)” value is reported as 1.3% (n = 1) and −0.9% (n = 2).

Regarding `CCOc1cncc(-c2ccc(CN3CCN(c4ccc(C(=O)NCC56CC7CC(CC(C7)C5)C6)cc4)CC3)c3ccccc23)c1` [B1A066-01, N-(1-Adamantylmethyl)-4-[4-[[4-(5-ethoxypyridin-3-yl)naphthalen-1-yl]methyl]piperazin-1-yl]benzamide], under setting [1], the “ASMS ratio (%) n = 1” value is 8.2% and the “ASMS ratio (%) n = 2” value is recorded as 7.7%. On to `CCOc1cncc(-c2ccc(CN3CCN(c4ccc(C(=O)NS(C)(=O)=O)cc4)CC3)c(OC)c2)c1` [B2I054-01, 4-[4-[[4-(5-Ethoxypyridin-3-yl)-2-methoxyphenyl]methyl]piperazin-1-yl]-N-methylsulfonylbenzamide], for which the “ASMS ratio (%)” value worked out at 0.0% (n = 1) and 0.0% (n = 2). For `CCOc1cncc(-c2ccc(C(=O)N3CCN(c4ccc(C(=O)NS(C)(=O)=O)cc4)CC3)cc2C)c1` [B2I026-01, 4-[4-[4-(5-Ethoxypyridin-3-yl)-3-methylbenzoyl]piperazin-1-yl]-N-methylsulfonylbenzamide], where the note is “AS-MS, mixture library, Bcl-2”, the “ASMS ratio (%) n = 1” value was −2.6% and the “ASMS ratio (%) n = 2” value is −0.2%. `CCOc1cccc(C#Cc2ccccc2CN2CCN(c3ccc(C(=O)NS(=O)(=O)c4ccc(NCCSc5ccccc5)c(C(F)(F)F)c4)nn3)CC2)c1` [B2R095-01, 6-[4-[[2-[2-(3-Ethoxyphenyl)ethynyl]phenyl]methyl]piperazin-1-yl]-N-[4-(2-phenylsulfanylethylamino)-3-(trifluoromethyl)phenyl]sulfonylpyridazine-3-carboxamide]: the “ASMS ratio (%)” value runs as follows: (n = 1) 42.2%; (n = 2) 5.5%. For `CCOc1cncc(-c2ccc(CN3CCN(c4ccc(C(=O)NCC(F)(F)F)nn4)CC3)c(CC)c2)c1` [B1K076-01, 6-[4-[[4-(5-Ethoxypyridin-3-yl)-2-ethylphenyl]methyl]piperazin-1-yl]-N-(2,2,2-trifluoroethyl)pyridazine-3-carboxamide], the “ASMS ratio (%) n = 2” value under setting [1] was determined as 0.0%. `CCOc1cncc(-c2ccccc2CN2CCN(c3ccc(C(=O)N(C)CC45CC6CC(CC(C6)C4)C5)nn3)CC2)c1` [B3A072-01, N-(1-Adamantylmethyl)-6-[4-[[2-(5-ethoxypyridin-3-yl)phenyl]methyl]piperazin-1-yl]-N-methylpyridazine-3-carboxamide]: under setting [2], the “ASMS ratio (%) n = 1” value is 11.6% and the “ASMS ratio (%) n = 2” value is listed as 3.1%.
